According to ChEMBL document CHEMBL4507265 (2021):

Tests used:
[1] = target: Cyclin-dependent kinase 13 (Homo sapiens) (UniProt Q14004); conditions: Compound concentration 1000.0 nM
[2] = target: Serine/threonine-protein kinase Sgk1 (Homo sapiens) (UniProt O00141); conditions: Compound concentration 1000.0 nM
[3] = target: Megakaryocyte-associated tyrosine-protein kinase (Homo sapiens) (UniProt P42679); conditions: Compound concentration 1000.0 nM
[4] = target: Cyclin-dependent kinase 14 (Homo sapiens) (UniProt O94921); conditions: Compound concentration 1000.0 nM
[5] = target: Mitogen-activated protein kinase kinase kinase 9 (Homo sapiens) (UniProt P80192); conditions: Compound concentration 1000.0 nM
[6] = tested on: Hepatocyte growth factor receptor (Homo sapiens), P08581 [Y1235D]; conditions: Compound concentration 1000.0 nM
[7] = target: Serine/threonine-protein kinase TBK1 (Homo sapiens) (UniProt Q9UHD2); conditions: Compound concentration 1000.0 nM
[8] = target: Atypical kinase COQ8A, mitochondrial (Homo sapiens) (UniProt Q8NI60); conditions: Compound concentration 1000.0 nM
[9] = target: Serine/threonine-protein kinase N2 (Homo sapiens) (UniProt Q16513); conditions: Compound concentration 1000.0 nM
[10] = target: Serine/threonine-protein kinase haspin (Homo sapiens) (UniProt Q8TF76); conditions: Compound concentration 1000.0 nM
[11] = tested on: Tyrosine-protein kinase ABL1 (Homo sapiens), P00519 [M351T]; conditions: Compound concentration 1000.0 nM
[12] = target: Serine/threonine-protein kinase OSR1 (Homo sapiens) (UniProt O95747); conditions: Compound concentration 1000.0 nM
[13] = target: Receptor tyrosine-protein kinase erbB-4 (Homo sapiens) (UniProt Q15303); conditions: Compound concentration 1000.0 nM
[14] = target: Activated CDC42 kinase 1 (Homo sapiens) (UniProt Q07912); conditions: Compound concentration 1000.0 nM
[15] = target: Serine/threonine-protein kinase Nek2 (Homo sapiens) (UniProt P51955); conditions: Compound concentration 1000.0 nM
[16] = target: Delta-type opioid receptor (Homo sapiens) (UniProt P41143); conditions: Compound concentration 10.0 uM
[17] = target: Serine/threonine-protein kinase WNK3 (Homo sapiens) (UniProt Q9BYP7); conditions: Compound concentration 1000.0 nM
[18] = target: Serine/threonine-protein kinase Nek5 (Homo sapiens) (UniProt Q6P3R8); conditions: Compound concentration 1000.0 nM
[19] = target: Serine/threonine-protein kinase MRCK alpha (Homo sapiens) (UniProt Q5VT25); conditions: Compound concentration 1000.0 nM
[20] = target: Hormonally up-regulated neu tumor-associated kinase (Homo sapiens) (UniProt P57058); conditions: Compound concentration 1000.0 nM
[21] = target: SNF-related serine/threonine-protein kinase (Homo sapiens) (UniProt Q9NRH2); conditions: Compound concentration 1000.0 nM
[22] = tested on: Phosphatidylinositol 4,5-bisphosphate 3-kinase catalytic subunit alpha isoform (Homo sapiens), P42336 [H1047Y]; conditions: Compound concentration 1000.0 nM
[23] = target: Serine/threonine-protein kinase 38 (Homo sapiens) (UniProt Q15208); conditions: Compound concentration 1000.0 nM
[24] = target: Sigma non-opioid intracellular receptor 1 (Homo sapiens) (UniProt Q99720); conditions: Compound concentration 10.0 uM
[25] = target: Insulin receptor (Homo sapiens) (UniProt P06213); conditions: Compound concentration 1000.0 nM
[26] = target: Interleukin-1 receptor-associated kinase 1 (Homo sapiens) (UniProt P51617); conditions: Compound concentration 1000.0 nM
[27] = target: Protein kinase C theta type (Homo sapiens) (UniProt Q04759); conditions: Compound concentration 1000.0 nM
[28] = target: Phosphatidylinositol 5-phosphate 4-kinase type-2 beta (Homo sapiens) (UniProt P78356); conditions: Compound concentration 1000.0 nM
[29] = target: Muscarinic acetylcholine receptor M5 (Homo sapiens) (UniProt P08912); conditions: Compound concentration 10.0 uM
[30] = target: Phosphatidylinositol 4,5-bisphosphate 3-kinase catalytic subunit alpha isoform (Homo sapiens) (UniProt P42336); conditions: Compound concentration 1000.0 nM
[31] = target: Ribosomal protein S6 kinase alpha-6 (Homo sapiens) (UniProt Q9UK32); conditions: Compound concentration 1000.0 nM
[32] = target: Death-associated protein kinase 1 (Homo sapiens) (UniProt P53355); conditions: Compound concentration 1000.0 nM
[33] = target: Myosin light chain kinase 2, skeletal/cardiac muscle (Homo sapiens) (UniProt Q9H1R3); conditions: Compound concentration 1000.0 nM
[34] = target: Cyclin-dependent kinase-like 1 (Homo sapiens) (UniProt Q00532); conditions: Compound concentration 1000.0 nM
[35] = target: Calcium/calmodulin-dependent protein kinase type 1G (Homo sapiens) (UniProt Q96NX5); conditions: Compound concentration 1000.0 nM
[36] = target: Protein-tyrosine kinase 2-beta (Homo sapiens) (UniProt Q14289); conditions: Compound concentration 1000.0 nM
[37] = target: Mitogen-activated protein kinase 3 (Homo sapiens) (UniProt P27361); conditions: Compound concentration 1000.0 nM
[38] = target: Serine/threonine-protein kinase tousled-like 2 (Homo sapiens) (UniProt Q86UE8); conditions: Compound concentration 1000.0 nM
[39] = target: Misshapen-like kinase 1 (Homo sapiens) (UniProt Q8N4C8); conditions: Compound concentration 1000.0 nM
[40] = target: Serine/threonine-protein kinase VRK2 (Homo sapiens) (UniProt Q86Y07); conditions: Compound concentration 1000.0 nM
[41] = target: Vascular endothelial growth factor receptor 1 (Homo sapiens) (UniProt P17948); conditions: Compound concentration 1000.0 nM
[42] = target: Aurora kinase A (Homo sapiens) (UniProt O14965); conditions: Compound concentration 1000.0 nM
[43] = target: Fibroblast growth factor receptor 3 (Homo sapiens) (UniProt P22607); conditions: Compound concentration 1000.0 nM
[44] = tested on: Proto-oncogene tyrosine-protein kinase receptor Ret (Homo sapiens), P07949 [V804L]; conditions: Compound concentration 1000.0 nM
[45] = target: Muscle, skeletal receptor tyrosine-protein kinase (Homo sapiens) (UniProt O15146); conditions: Compound concentration 1000.0 nM

Sequence of Serine/threonine-protein kinase N2 (Homo sapiens) (Q16513 whole entry, looked up): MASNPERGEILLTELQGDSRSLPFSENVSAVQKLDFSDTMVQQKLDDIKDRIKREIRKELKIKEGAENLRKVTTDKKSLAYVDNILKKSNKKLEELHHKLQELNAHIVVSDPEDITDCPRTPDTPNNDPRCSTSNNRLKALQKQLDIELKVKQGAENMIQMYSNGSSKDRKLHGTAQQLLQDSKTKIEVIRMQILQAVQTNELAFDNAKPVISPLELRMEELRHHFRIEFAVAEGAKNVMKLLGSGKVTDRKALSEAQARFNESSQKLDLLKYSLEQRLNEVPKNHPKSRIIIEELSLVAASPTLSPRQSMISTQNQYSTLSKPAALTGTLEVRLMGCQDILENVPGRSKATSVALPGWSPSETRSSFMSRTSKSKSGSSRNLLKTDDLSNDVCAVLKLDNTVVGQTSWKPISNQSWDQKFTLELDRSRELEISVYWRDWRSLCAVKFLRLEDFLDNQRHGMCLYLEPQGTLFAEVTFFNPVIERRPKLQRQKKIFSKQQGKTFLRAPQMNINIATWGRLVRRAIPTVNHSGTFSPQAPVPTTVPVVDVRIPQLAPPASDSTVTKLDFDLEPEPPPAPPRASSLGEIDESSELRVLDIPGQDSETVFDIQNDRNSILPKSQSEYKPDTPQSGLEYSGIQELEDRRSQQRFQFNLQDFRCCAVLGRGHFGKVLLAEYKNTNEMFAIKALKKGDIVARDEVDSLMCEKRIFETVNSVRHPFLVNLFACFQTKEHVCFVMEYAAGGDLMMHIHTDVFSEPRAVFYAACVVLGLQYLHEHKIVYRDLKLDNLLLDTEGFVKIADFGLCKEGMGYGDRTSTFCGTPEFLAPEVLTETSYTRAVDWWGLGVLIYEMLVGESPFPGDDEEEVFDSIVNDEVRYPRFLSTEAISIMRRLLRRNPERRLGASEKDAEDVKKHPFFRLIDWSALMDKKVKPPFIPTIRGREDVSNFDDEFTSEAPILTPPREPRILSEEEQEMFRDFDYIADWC
Sequence of Cyclin-dependent kinase 14 (Homo sapiens) (O94921 whole entry): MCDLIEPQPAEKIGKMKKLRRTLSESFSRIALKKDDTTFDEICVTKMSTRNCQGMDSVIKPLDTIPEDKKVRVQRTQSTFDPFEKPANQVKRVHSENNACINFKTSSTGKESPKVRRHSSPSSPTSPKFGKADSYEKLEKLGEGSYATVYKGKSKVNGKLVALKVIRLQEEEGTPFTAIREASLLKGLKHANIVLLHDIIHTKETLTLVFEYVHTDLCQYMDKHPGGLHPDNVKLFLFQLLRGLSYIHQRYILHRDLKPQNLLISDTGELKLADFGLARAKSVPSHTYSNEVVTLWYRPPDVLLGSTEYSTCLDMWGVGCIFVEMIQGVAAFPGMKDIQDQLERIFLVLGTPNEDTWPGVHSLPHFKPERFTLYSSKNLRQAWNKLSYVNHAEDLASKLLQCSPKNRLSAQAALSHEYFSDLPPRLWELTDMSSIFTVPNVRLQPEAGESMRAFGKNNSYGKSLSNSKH
Sequence of Serine/threonine-protein kinase OSR1 (Homo sapiens) (O95747 2-527 limits assumed): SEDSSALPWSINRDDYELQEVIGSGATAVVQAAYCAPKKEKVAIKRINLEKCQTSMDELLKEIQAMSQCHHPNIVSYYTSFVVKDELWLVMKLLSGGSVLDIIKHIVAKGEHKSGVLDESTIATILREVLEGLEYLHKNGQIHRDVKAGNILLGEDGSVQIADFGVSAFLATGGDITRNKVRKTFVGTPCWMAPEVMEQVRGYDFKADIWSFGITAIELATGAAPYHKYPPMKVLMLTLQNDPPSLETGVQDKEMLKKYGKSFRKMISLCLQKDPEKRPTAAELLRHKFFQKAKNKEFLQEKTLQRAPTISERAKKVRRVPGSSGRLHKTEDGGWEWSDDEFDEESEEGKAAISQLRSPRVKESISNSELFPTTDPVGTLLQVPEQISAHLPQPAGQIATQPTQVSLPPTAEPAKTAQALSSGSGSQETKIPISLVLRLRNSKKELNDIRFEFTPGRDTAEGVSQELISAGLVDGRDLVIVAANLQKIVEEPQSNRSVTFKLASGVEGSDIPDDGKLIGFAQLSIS
Sequence of Phosphatidylinositol 4,5-bisphosphate 3-kinase catalytic subunit alpha isoform (Homo sapiens) (P42336 whole entry, canonical isoform): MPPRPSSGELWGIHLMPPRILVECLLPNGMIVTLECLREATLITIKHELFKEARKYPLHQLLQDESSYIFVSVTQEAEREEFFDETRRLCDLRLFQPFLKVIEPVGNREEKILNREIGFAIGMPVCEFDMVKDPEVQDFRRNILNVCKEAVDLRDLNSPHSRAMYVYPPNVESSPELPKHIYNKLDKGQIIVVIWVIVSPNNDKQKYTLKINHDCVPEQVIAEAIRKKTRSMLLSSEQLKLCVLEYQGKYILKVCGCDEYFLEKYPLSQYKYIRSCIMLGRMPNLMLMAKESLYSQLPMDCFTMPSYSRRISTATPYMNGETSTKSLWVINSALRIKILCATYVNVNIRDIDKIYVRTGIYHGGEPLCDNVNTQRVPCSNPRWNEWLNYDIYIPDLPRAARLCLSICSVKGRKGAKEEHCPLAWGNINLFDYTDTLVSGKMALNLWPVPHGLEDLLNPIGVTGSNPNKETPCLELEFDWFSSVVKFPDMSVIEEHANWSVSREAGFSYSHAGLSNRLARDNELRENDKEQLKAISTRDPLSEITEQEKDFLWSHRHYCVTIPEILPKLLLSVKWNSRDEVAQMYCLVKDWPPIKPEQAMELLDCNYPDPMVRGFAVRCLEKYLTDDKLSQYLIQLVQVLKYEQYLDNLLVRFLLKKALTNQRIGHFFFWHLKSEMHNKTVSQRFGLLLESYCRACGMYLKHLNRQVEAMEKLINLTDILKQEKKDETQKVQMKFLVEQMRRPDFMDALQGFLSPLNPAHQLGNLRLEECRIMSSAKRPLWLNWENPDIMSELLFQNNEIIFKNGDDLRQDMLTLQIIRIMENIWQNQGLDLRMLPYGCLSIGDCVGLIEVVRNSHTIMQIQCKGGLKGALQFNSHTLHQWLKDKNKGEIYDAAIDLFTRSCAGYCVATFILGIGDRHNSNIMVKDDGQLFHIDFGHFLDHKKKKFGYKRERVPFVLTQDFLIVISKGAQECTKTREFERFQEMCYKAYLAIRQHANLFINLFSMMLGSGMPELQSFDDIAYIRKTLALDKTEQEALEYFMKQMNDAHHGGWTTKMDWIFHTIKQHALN
Sequence of Hormonally up-regulated neu tumor-associated kinase (Homo sapiens) (P57058 whole entry): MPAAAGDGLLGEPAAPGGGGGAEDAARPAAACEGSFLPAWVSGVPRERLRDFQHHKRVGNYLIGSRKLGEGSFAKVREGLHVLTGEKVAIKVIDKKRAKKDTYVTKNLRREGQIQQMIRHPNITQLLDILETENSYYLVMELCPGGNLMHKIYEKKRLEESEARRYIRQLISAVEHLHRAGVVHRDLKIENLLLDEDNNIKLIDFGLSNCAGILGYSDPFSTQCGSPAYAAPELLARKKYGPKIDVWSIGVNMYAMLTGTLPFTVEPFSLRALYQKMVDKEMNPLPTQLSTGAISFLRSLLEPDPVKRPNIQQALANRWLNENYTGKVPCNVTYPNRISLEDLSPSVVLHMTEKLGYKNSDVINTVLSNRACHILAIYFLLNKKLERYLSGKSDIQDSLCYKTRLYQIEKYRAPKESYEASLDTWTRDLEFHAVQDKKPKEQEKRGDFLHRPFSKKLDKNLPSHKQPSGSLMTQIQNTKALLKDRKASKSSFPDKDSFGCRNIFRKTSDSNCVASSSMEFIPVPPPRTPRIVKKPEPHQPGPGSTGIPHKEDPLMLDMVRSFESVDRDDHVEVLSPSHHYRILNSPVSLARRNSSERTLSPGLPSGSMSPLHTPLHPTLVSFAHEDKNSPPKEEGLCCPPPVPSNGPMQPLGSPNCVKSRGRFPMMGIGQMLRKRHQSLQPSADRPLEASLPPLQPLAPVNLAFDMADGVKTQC
Sequence of Serine/threonine-protein kinase Nek5 (Homo sapiens) (Q6P3R8 whole entry): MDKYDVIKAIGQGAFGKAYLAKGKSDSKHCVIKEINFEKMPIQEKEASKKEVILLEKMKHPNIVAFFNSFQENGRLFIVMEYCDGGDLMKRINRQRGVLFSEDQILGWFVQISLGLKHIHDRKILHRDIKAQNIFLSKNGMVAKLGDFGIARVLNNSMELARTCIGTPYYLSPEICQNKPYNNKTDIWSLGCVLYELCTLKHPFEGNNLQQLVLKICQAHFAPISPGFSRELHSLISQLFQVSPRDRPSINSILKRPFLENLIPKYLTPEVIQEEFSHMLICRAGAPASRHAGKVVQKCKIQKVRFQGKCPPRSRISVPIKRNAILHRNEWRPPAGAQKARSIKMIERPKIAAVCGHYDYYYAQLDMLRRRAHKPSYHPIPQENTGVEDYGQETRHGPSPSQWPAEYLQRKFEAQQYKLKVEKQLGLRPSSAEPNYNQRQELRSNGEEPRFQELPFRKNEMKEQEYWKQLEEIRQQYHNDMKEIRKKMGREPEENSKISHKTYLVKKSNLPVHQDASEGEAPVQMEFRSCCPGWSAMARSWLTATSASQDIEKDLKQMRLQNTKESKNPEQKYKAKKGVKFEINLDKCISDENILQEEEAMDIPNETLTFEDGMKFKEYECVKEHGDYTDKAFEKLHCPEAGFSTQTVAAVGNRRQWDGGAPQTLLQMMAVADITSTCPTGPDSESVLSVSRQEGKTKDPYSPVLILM
Sequence of Serine/threonine-protein kinase 38 (Homo sapiens) (Q15208 2-465 limits assumed): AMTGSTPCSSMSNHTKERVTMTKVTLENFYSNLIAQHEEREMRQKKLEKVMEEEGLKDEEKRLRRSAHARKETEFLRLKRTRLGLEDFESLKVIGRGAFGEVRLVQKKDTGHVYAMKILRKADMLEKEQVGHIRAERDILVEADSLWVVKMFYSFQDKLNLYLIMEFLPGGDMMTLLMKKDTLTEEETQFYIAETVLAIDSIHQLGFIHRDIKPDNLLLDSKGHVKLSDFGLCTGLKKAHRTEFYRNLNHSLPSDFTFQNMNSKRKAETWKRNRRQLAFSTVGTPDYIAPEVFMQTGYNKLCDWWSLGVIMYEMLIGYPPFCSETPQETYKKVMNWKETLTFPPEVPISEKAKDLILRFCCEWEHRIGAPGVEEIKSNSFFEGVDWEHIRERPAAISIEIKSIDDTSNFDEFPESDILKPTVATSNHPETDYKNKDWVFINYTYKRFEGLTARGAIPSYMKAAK

NS(=O)(=O)c1cc(NC(=O)C2(c3ccccc3Cl)CC2)ccc1Oc1cccc(Cl)c1 [BAY-207]
inactive: residual activity [1] 100% | residual activity [2] 100% | residual activity [3] 100% | residual activity [4] 63% | residual activity [5] 67% | residual activity [6] 61% | residual activity [7] 62% | residual activity [8] 100% | residual activity [9] 83% | residual activity [10] 96% | residual activity [11] 70% | residual activity [12] 100% | residual activity [13] 75% | residual activity [14] 82% | residual activity [15] 86% | inhibition [16] 41.6% | residual activity [17] 78% | residual activity [18] 89% | residual activity [19] 95% | residual activity [20] 75% | residual activity [21] 100% | residual activity [22] 76% | residual activity [23] 81% | inhibition [24] 18.6% | residual activity [25] 100% | residual activity [26] 79% | residual activity [27] 88% | residual activity [28] 62% | inhibition [29] 14.7% | residual activity [30] 100% | residual activity [31] 100% | residual activity [32] 98% | residual activity [33] 73% | residual activity [34] 99% | residual activity [35] 100% | residual activity [36] 91% | residual activity [37] 76% | residual activity [38] 100% | residual activity [39] 86% | residual activity [40] 100% | residual activity [41] 100% | residual activity [42] 100% | residual activity [43] 100% | residual activity [44] 70% | residual activity [45] 77%

NS(=O)(=O)c1cc(NC(=O)Cc2ccccc2)ccc1Oc1cccc(Cl)c1 [BAY-1797]
inactive: residual activity [1] 92% | residual activity [2] 87% | residual activity [3] 68% | residual activity [4] 95% | residual activity [5] 100% | residual activity [6] 100% | residual activity [7] 68% | residual activity [8] 94% | residual activity [9] 90% | residual activity [10] 100% | residual activity [11] 78% | residual activity [12] 78% | residual activity [13] 56% | residual activity [14] 79% | residual activity [15] 89% | inhibition [16] 20.5% | residual activity [17] 78% | residual activity [18] 77% | residual activity [19] 91% | residual activity [20] 84% | residual activity [21] 100% | residual activity [22] 81% | residual activity [23] 90% | inhibition [24] -8.2% | residual activity [25] 100% | residual activity [26] 73% | residual activity [27] 74% | residual activity [28] 89% | inhibition [29] 16.7% | residual activity [30] 89% | residual activity [31] 84% | residual activity [32] 90% | residual activity [33] 81% | residual activity [34] 98% | residual activity [35] 84% | residual activity [36] 79% | residual activity [37] 94% | residual activity [38] 100% | residual activity [39] 90% | residual activity [40] 100% | residual activity [41] 80% | residual activity [42] 69% | residual activity [43] 86% | residual activity [44] 80% | residual activity [45] 100%
